The compounds below were run on anaesthetized naïve female rats (assay: Cystometry on anaesthetized naïve rats (suppression of rhythmic spontaneous bladder contractions)). Details: i.v., cumulative administration; mean of the lowest dose of 3 independent experiments at which contractions are first absent over a period of 10 min.
Format: in vivo, rat
Description: The cystometric investigation of naïve female rats was carried out by the method of Kimura et al. (Kimura et al., 1996, Int. J. Urol. 3:218-227). The abdomen of anaesthetized ventilated rats is opened up and the ureter is tied off. The urine is drained from the kidneys. A catheter is inserted into the bladder and fixed. […] After stable starting values are reached, the test substance is administered i.v. in a cumulative manner. An influence on bladder function manifests itself via suppression of spontaneous contractions. The absence of contractions over a period of 10 min is used as an indication of suppression.
A suppression of spontaneous contractions in the rats was measurable with all the substances tested. Table II indicates the mean of the lowest dose of 3 independent experiments at which for the first time contractions are absent over a period of 10 min.
In the case of CCOC(=O)[C@]1(c2ccccc2)CCC=C[C@H]1N(C)C (relative stereo) [Tilidine, trans-2-(dimethylamino)-1-phenyl-3-cyclohexene-1-carboxylic acid ethyl ester], the “Lowest dose effective for suppression of contraction” value (“Lowest dose effective” below) was 0.5 (n = 3) mg/kg.
For COc1ccc2c3c1O[C@H]1[C@@H](O)C=C[C@H]4[C@@H](C2)N(C)CC[C@@]341 [Codeine (phosphate), (5a,6a)-7,8-didehydro-4,5-epoxy-3-methoxy-17-methylmorphinan-6-ol], the “Lowest dose effective” value was 4.7 (n = 3) mg/kg.
CCC1(c2cccc(O)c2)CCCCN(C)C1 (stereo not drawn) [Meptazinol, 3-(3-ethylhexahydro-1-methyl-1H-azepin-3-yl)phenol] was tested, and the “Lowest dose effective” value was 1.0 (n = 3) mg/kg.

From US20040029905A1, “Use of weak opioids and mixed opioid agonists/antagonists for treatment of urinary incontinence” (Gruenenthal GmbH, priority 2000, published 2004)
